Type in all cases: cell-based
One assay concerns ALDH+ H358 CSCs. Description: On-bead binding of sorted ALDH+ and ALDH− H358 cells to PCS2-carrying beads. As for the experimental part: On-bead binding assay: 50 mg of peptoid-carrying tentagel beads or 1.3×10^6 of peptoid-carrying magnetic beads were equilibrated in 2 mL RPMI containing 5% FBS and 3% BSA (Sigma) for 1 hour by shaking. The beads can then be equilibrated with 5×10^6 of each cancer cell type listed above in 2 mL RPMI containing 5% FBS and 1% BSA at room temperature for 15-60 minutes for binding. The cell-bound beads are then pulled down with a magnet and washed with RPMI to cleanly harvest bound cells. Unbound cells were collected separately for further confirmations.
To confirm the binding specificity of PCS2 to CSCs, sorted ALDH+ H358 CSCs (red stained) and ALDH− H358 cells (green stained) were exposed to PCS2-carrying beads. […] The same assay was repeated after allowing these CSC population to grow for 2 weeks, where by then the CSC percentage in the ALDH+ sorted population became low, the number of cells bound was very low (FIG. 4E), indicating PCS2 recognizes a unique target specific for CSCs, but not other cancer cells.

In assay [1] the test system is H358 cells. Put plainly: Colony formation assay of bead-bound, unbound and unsorted fractions. Particulars: 2 weeks of growth, crystal violet. The procedure: A colony formation assay was performed on the untreated H358 cells and PCS2-bound and PCS2-unbound fractions to further confirm that the cells bound by PCS2 were CSCs. About 500 cells from each of the three fractions were plated into […] wells and grown for 2 weeks. The resulting colonies were then stained with crystal violet.
A colony formation assay was performed on the untreated H358 cells and PCS2-bound and PCS2-unbound fractions to further confirm that the cells bound by PCS2 were CSCs. About 300-500 cells from each of cell group were plated into […] wells and grown for 2 weeks or until colonies were visible by eye. The resulting colonies were then stained with crystal violet for approximately 5 minutes and colonies were counted using the MOESM software program, and confirmed though microscopic counting.
It was determined that the presence of plectin contributes to colony formation and wound healing potential of H358 cells. Plectin antibody-coated magnetic-bead bound fractions form a higher number of colonies compared to unbound and unseparated fraction in the clonogenicity assay in H358 cells The clonogenecity after plectin knockdown was then tested in H358, H460, and H2073 cells (FIG. 25C, 25D). Knockdown of plectin decreases colony formation in H358, H460 and H2073 cells. Knockdown of plectin leads to a decrease in mobility and scratch healing in H358 cells. […]

In assay [2] the test system is lung cancer cell lines (HCC4017, H358, H366, H460, H1299, H2073, H1693, H1993, H1975). Put plainly: RT-qPCR of CSC markers and PLEC in PCS2-bead bound vs unbound fractions of lung cancer cell lines. As for the experimental part:
Using the same basic approach, peptoid-bound and peptoid-unbound fractions were generated from the lung cancer cells lines HCC4017, H358, H366, H460 for the PCS2 compound, and the relative expression of CSC marker SOX2 was evaluated between each fraction.
To confirm the binding specificity of PCS2 to CSCs, CSCs isolated from H358 cells and normal mesenchymal stem cells (MSCs) were exposed to PCS2-carrying beads as described in Example 3, and then separated by magnet into peptoid-bound and peptoid-unbound fractions (FIG. 19A). […] To further evaluate PCS2 specificity towards CSCs, HCC4017, H460, H1299, H2073, H1693, H1993, and H1975 cells were exposed to PCS2-carrying beads, and then separated by magnet into peptoid-bound and peptoid-unbound fractions. RNA from both bound and unbound fractions was harvested and analyzed by RT-qPCR to determine the relative expression of several known CSC biomarkers in each fraction was assessed, including expression of ALDH1A3 (FIG. 19B), CD133 (FIG. 19C), CD44 (FIG. 19D), and SOX2 (FIG. 19E). CD44 and SOX2 expressions were high on PCS2-coated magnetic-bead bound fractions from the almost all cell lines having higher expression of CSC biomarkers compared to the unsorted or unbound fractions confirming that the capacity of PCS2 to bind to CSCs is not exclusive to H358 cells. The correlation to ALDH1A3 and CD133 were varied, which is typical due to the high heterogeneity of CSC biomarker expressions, and there are no 100% biomarker correlations exists.
Plectin expression was directed tested on PCS2-bound cells from H358, HCC4017, H460, H1299, H2073, H1693, H1993, H1975 cells by RT-QPCR (FIG. 22A). […] To determine if PCS2 and the plectin antibody compete for binding, the magnetic-bead binding assay was repeated in the presence of the plectin antibody. […] Since previous reports have shown cells to be sufficiently stable for further assays with plectin knock-down, plectin knockdown was conducted in H358, H1693, H1975 and H1993 cells using siRNA using the magnetic-bead binding assay described above. […] From these observations, it was concluded that plectin is the cell-surface marker that PCS2 is targeting.
In general terms: In qPCR the cycle at which signal appears reflects the starting amount.

The subject of another assay is H358 and HCC4017 cells. Description: ALDEFluor staining of PCS2-bound and PCS2-unbound fractions. The procedure:
To confirm that the peptoid-bound fraction was CSCs, a subset of PCS2-bound and PCS2-unbound fractions from H358 cells were generated and stained with the ALDEFLuor kit, which produces green fluorescence when the ALDH protein is active in a cell, and DAPI, and then analyzed them under a fluorescence microscope. […] An equal number of PCS2-bead sorted cells from the H358 and HCC4017 cell lines were also treated with the Aldefluor kit and their relative fluorescence was evaluated using a spectrophotometer (FIG. 7B & C).

Assay [3] deals with H358 cells. Put plainly: Clonogenicity assay under treatment. The following applies: 500 cells/well, 30 and 100 μM, 2 weeks. The procedure:
To further validate that PCS2D1 inhibiting CSCs, the effects of PCS2D1 against a stem-cell-associated phenotype were studied with regards to the capacity to form colonies from a single cell by using the clonogenicity assay. About 300 cells were plated onto 35 mm cell culture plates with either 0, 1, 10, 30, or 100 μM of PCS2D1, and allowed to grow for 2 weeks. After staining with crystal violet, both the number of colonies and the overall morphology of the colonies were evaluated.
The clonogenicity assay was repeated with H358 cells, 500 cells/well, using 0, 10, 30 and 100 μM PCS2 treatment over 2 weeks. […] To confirm that this was due to the specific targeting on CSCs, the clonogenicity assay was performed again over 8 days, with the treatment performed from day 7 to 8 instead, to allow the colonies to establish. This was done alongside control cells plated on chamber slides and then grown under the same conditions.

[4] abbreviates: HCC4017, H460, H1299, H2073, H1693, H1993, H1975, almost all cell lines.

The text below walks through data of patent US11865157B2, “Compositions and methods of targeting cancer stem cells” (University of Houston System, priority 2016, dated 2024).

Numbered stars: 1 amine (or outer) side, 2 acyl side, 3 side chain; on linkers, the order of the positions; unused ones are H or OH. Square brackets hold non-standard residues; d marks the D form. Peptide text beside a SMILES is read from it. ξ: configuration not given here. Gly(N-piperonyl) = O=C(O)CNCc1ccc2c(c1)OCO2; X1 = CC(c1ccccc1)N(CC(=O)[*:2])[*:1]; Nlys = NCCCCNCC(=O)O; ξK = NCCCCC(N)C(=O)O; ξM = CSCCC(N)C(=O)O; Nme = COCCNCC(=O)O

In the case of `COCCNCC(=O)N(CCCCN)CC(=O)N(CC(=O)N(CC(=O)N(CCCCN)CC(=O)NC(CCCCN)C(=O)N[C@H](CCCCN)C(=O)NC(CCSC)C(N)=O)C(C)c1ccccc1)Cc1ccc2c(c1)OCO2` (stereo partly shown) [PCS2] (H-[Nme][Nlys][Gly(N-piperonyl)][X1][Nlys][ξK][dK][ξM]-NH2), the “number of cells bound to PCS2-beads” value in the assay with ALDH+ H358 CSCs (ALDH+ sorted population after 2 weeks of growth) is listed as “very low”. The “binding of PCS2-beads to sorted ALDH+ (red) vs ALDH− (green) H358 cells” value in the assay on ALDH+ H358 CSCs (freshly sorted cells) was “only bound significantly to the red CSCs”. Also, in the assay on H358 cells [1], the “number of colonies from bead-bound fraction vs unbound or unsorted fractions” value is recorded as “significantly higher number of colonies”. In assay [2] (H358, HCC4017, H460, H1299, H2073, H1693, H1993, H1975, RT-QPCR), the “Plectin expression in PCS2-bound cells vs unbound cells” value is on record as “significantly higher”. Further, the “relative expression of SOX2 in PCS2-bead fractions” value in assay [2] (HCC4017, H358, H366, H460, vs unsorted or unbound fractions) is listed as “increased expression of SOX2”. Further, in assay [2] (setting [4]), the “CD44 expression in PCS2-coated magnetic-bead bound fractions” value is “high” and the “SOX2 expression in PCS2-coated magnetic-bead bound fractions” value is on record as “high”. Also, the “ALDEFluor green fluorescence of PCS2-bound fraction” value with H358 and HCC4017 cells (H358, fluorescence microscope, vs unbound or untreated fractions) is given as “significantly stronger green fluorescence”. In addition, the “relative ALDEFluor fluorescence of PCS2-bead sorted cells” value in the assay on H358 and HCC4017 cells (H358 and HCC4017, spectrophotometer) is “fluorescence was higher in bound cells”. Besides, the colonies formed entry in the assay on H358 cells [3] is listed as “Significantly fewer colonies formed”.
